Test results from ChEMBL document CHEMBL5385845, “Novel coumarin aminophosphonates as potential multitargeting antibacterial agents against Staphylococcus aureus” (Eur J Med Chem, 2023).
Values after ≈ are worked out from the molar mass of the structure shown.

How the values were obtained:
Format in all cases: functional
[1] = test system: Escherichia coli; test: Antibacterial activity against Escherichia coli assessed as inhibition of bacterial growth
[2] = test system: Escherichia coli; test: Antibacterial activity against Escherichia coli ATCC 25922 assessed as inhibition of bacterial growth
[3] = test system: Klebsiella pneumoniae; test: Antibacterial activity against Klebsiella pneumoniae assessed as inhibition of bacterial growth
[4] = test system: Staphylococcus aureus; test: Antibacterial activity against methicillin resistant Staphylococcus aureus N315 assessed as inhibition of bacterial growth
[5] = test system: Staphylococcus aureus; test: Antibacterial activity against Staphylococcus aureus ATCC 29213 assessed as inhibition of bacterial growth
[6] = test system: Staphylococcus aureus; test: Antibacterial activity against Staphylococcus aureus ATCC 25923 assessed as inhibition of bacterial growth
[7] = test system: Pseudomonas aeruginosa; test: Antibacterial activity against Pseudomonas aeruginosa assessed as inhibition of bacterial growth
[8] = test system: Staphylococcus aureus; test: Antibacterial activity against Staphylococcus aureus assessed as inhibition of bacterial growth
[9] = test system: Acinetobacter baumannii; test: Antibacterial activity against Acinetobacter baumannii assessed as inhibition of bacterial growth
[10] = test system: Enterococcus faecalis; test: Antibacterial activity against Enterococcus faecalis assessed as inhibition of bacterial growth
[11] = test system: Pseudomonas aeruginosa; test: Antibacterial activity against Pseudomonas aeruginosa ATCC 27853 assessed as inhibition of bacterial growth

CCOP(=O)(OCC)C(Nc1ccc2c(C)cc(=O)oc2c1)c1ccc(O)c(OC)c1 (stereo unspecified)
MIC [1]: 128 µg/mL (≈ 286 µM)
MIC [2]: 64 µg/mL (≈ 143 µM)
MIC [3]: 256 µg/mL (≈ 572 µM)
MIC [4]: 128 µg/mL (≈ 286 µM)
MIC [5]: 128 µg/mL (≈ 286 µM)
MIC [6]: 64 µg/mL (≈ 143 µM)
MIC [7]: 256 µg/mL (≈ 572 µM)
MIC [8]: 64 µg/mL (≈ 143 µM)
MIC [9]: 128 µg/mL (≈ 286 µM)
MIC [10]: 16 µg/mL (≈ 35.8 µM)
MIC [11]: 64 µg/mL (≈ 143 µM)

CCOP(=O)(OCC)C(Nc1ccc2c(C)cc(=O)oc2c1)c1nccs1 (stereo unspecified)
MIC [1]: 128 µg/mL (≈ 313 µM)
MIC [2]: 64 µg/mL (≈ 157 µM)
MIC [3]: 256 µg/mL (≈ 627 µM)
MIC [4]: 64 µg/mL (≈ 157 µM)
MIC [5]: 32 µg/mL (≈ 78.4 µM)
MIC [6]: 128 µg/mL (≈ 313 µM)
MIC [7]: 64 µg/mL (≈ 157 µM)
MIC [8]: 16 µg/mL (≈ 39.2 µM)
MIC [9]: 32 µg/mL (≈ 78.4 µM)
MIC [10]: 128 µg/mL (≈ 313 µM)
MIC [11]: 8 µg/mL (≈ 19.6 µM)

CCOP(=O)(OCC)C(Nc1ccc2c(C)cc(=O)oc2c1)c1ccc(C#N)cc1 (stereo unspecified)
MIC [1]: 128 µg/mL (≈ 300 µM)
MIC [2]: 128 µg/mL (≈ 300 µM)
MIC [3]: 128 µg/mL (≈ 300 µM)
MIC [4]: 128 µg/mL (≈ 300 µM)
MIC [5]: 64 µg/mL (≈ 150 µM)
MIC [6]: 256 µg/mL (≈ 600 µM)
MIC [7]: 64 µg/mL (≈ 150 µM)
MIC [8]: 128 µg/mL (≈ 300 µM)
MIC [9]: 128 µg/mL (≈ 300 µM)
MIC [10]: 64 µg/mL (≈ 150 µM)
MIC [11]: 128 µg/mL (≈ 300 µM)

CCOP(=O)(OCC)C(Nc1ccc2c(C)cc(=O)oc2c1)c1ccccc1F (stereo unspecified)
MIC [1]: 128 µg/mL (≈ 305 µM)
MIC [2]: 64 µg/mL (≈ 153 µM)
MIC [3]: 128 µg/mL (≈ 305 µM)
MIC [4]: 64 µg/mL (≈ 153 µM)
MIC [5]: 64 µg/mL (≈ 153 µM)
MIC [6]: 64 µg/mL (≈ 153 µM)
MIC [7]: 256 µg/mL (≈ 610 µM)
MIC [8]: 16 µg/mL (≈ 38.2 µM)
MIC [9]: 64 µg/mL (≈ 153 µM)
MIC [10]: 64 µg/mL (≈ 153 µM)
MIC [11]: 32 µg/mL (≈ 76.3 µM)

CCCCc1nc(Cl)c(C(Nc2ccc3c(C)cc(=O)oc3c2)P(=O)(OCC)OCC)n1CO (stereo unspecified)
MIC [1]: 128 µg/mL (≈ 250 µM)
MIC [2]: 16 µg/mL (≈ 31.3 µM)
MIC [3]: 16 µg/mL (≈ 31.3 µM)
MIC [4]: 2 µg/mL (≈ 3.91 µM)
MIC [5]: 128 µg/mL (≈ 250 µM)
MIC [6]: 16 µg/mL (≈ 31.3 µM)
MIC [7]: 256 µg/mL (≈ 500 µM)
MIC [8]: 2 µg/mL (≈ 3.91 µM)
MIC [9]: 64 µg/mL (≈ 125 µM)
MIC [10]: 128 µg/mL (≈ 250 µM)
MIC [11]: 32 µg/mL (≈ 62.5 µM)

CCCCc1nc(Cl)c(C(Nc2ccc3c(C)cc(=O)oc3c2)P(=O)(OCC)OCC)n1Cc1ccc(F)cc1F (stereo unspecified)
MIC [1]: 128 µg/mL (≈ 211 µM)
MIC [2]: 128 µg/mL (≈ 211 µM)
MIC [3]: 128 µg/mL (≈ 211 µM)
MIC [4]: 64 µg/mL (≈ 105 µM)
MIC [5]: 64 µg/mL (≈ 105 µM)
MIC [6]: 128 µg/mL (≈ 211 µM)
MIC [7]: 256 µg/mL (≈ 421 µM)
MIC [8]: 32 µg/mL (≈ 52.6 µM)
MIC [9]: 64 µg/mL (≈ 105 µM)
MIC [10]: 128 µg/mL (≈ 211 µM)
MIC [11]: 128 µg/mL (≈ 211 µM)

CCCCc1nc(Cl)c(C(Nc2ccc3c(C)cc(=O)oc3c2)P(=O)(OCC)OCC)[nH]1 (stereo unspecified)
MIC [1]: 32 µg/mL (≈ 66.4 µM)
MIC [2]: 64 µg/mL (≈ 133 µM)
MIC [3]: 128 µg/mL (≈ 266 µM)
MIC [4]: 128 µg/mL (≈ 266 µM)
MIC [5]: 256 µg/mL (≈ 531 µM)
MIC [6]: 16 µg/mL (≈ 33.2 µM)
MIC [7]: 64 µg/mL (≈ 133 µM)
MIC [8]: 32 µg/mL (≈ 66.4 µM)
MIC [9]: 128 µg/mL (≈ 266 µM)
MIC [10]: 64 µg/mL (≈ 133 µM)
MIC [11]: 256 µg/mL (≈ 531 µM)

CCOP(=O)(OCC)C(Nc1ccc2c(C)cc(=O)oc2c1)c1ccc(Cl)cc1Cl (stereo unspecified)
MIC [1]: 32 µg/mL (≈ 68 µM)
MIC [2]: 128 µg/mL (≈ 272 µM)
MIC [3]: 64 µg/mL (≈ 136 µM)
MIC [4]: 128 µg/mL (≈ 272 µM)
MIC [5]: 128 µg/mL (≈ 272 µM)
MIC [6]: 128 µg/mL (≈ 272 µM)
MIC [7]: 128 µg/mL (≈ 272 µM)
MIC [8]: 128 µg/mL (≈ 272 µM)
MIC [9]: 64 µg/mL (≈ 136 µM)
MIC [10]: 64 µg/mL (≈ 136 µM)
MIC [11]: 64 µg/mL (≈ 136 µM)

CCOP(=O)(OCC)C(Nc1cc2ccccc2oc1=O)c1cccc(O)c1 (stereo unspecified)
MIC [1]: 64 µg/mL (≈ 159 µM)
MIC [2]: 32 µg/mL (≈ 79.3 µM)
MIC [3]: 128 µg/mL (≈ 317 µM)
MIC [4]: 32 µg/mL (≈ 79.3 µM)
MIC [5]: 32 µg/mL (≈ 79.3 µM)
MIC [6]: 8 µg/mL (≈ 19.8 µM)
MIC [7]: 32 µg/mL (≈ 79.3 µM)
MIC [8]: 8 µg/mL (≈ 19.8 µM)
MIC [9]: 16 µg/mL (≈ 39.7 µM)
MIC [10]: 16 µg/mL (≈ 39.7 µM)
MIC [11]: 4 µg/mL (≈ 9.92 µM)

CCCCc1nc(Cl)c(C(Nc2ccc3c(C)cc(=O)oc3c2)P(=O)(OCC)OCC)n1Cc1ccc(Cl)cc1Cl (stereo unspecified)
MIC [1]: 64 µg/mL (≈ 99.9 µM)
MIC [2]: 128 µg/mL (≈ 200 µM)
MIC [3]: 128 µg/mL (≈ 200 µM)
MIC [4]: 128 µg/mL (≈ 200 µM)
MIC [5]: 128 µg/mL (≈ 200 µM)
MIC [6]: 32 µg/mL (≈ 49.9 µM)
MIC [7]: 64 µg/mL (≈ 99.9 µM)
MIC [8]: 64 µg/mL (≈ 99.9 µM)
MIC [9]: 128 µg/mL (≈ 200 µM)
MIC [10]: 128 µg/mL (≈ 200 µM)
MIC [11]: 256 µg/mL (≈ 399 µM)

CCOP(=O)(OCC)C(Nc1ccc2c(C)cc(=O)oc2c1)c1ccc(O)c(Br)c1 (stereo unspecified)
MIC [1]: 64 µg/mL (≈ 129 µM)
MIC [2]: 128 µg/mL (≈ 258 µM)
MIC [3]: 128 µg/mL (≈ 258 µM)
MIC [4]: 256 µg/mL (≈ 516 µM)
MIC [5]: 128 µg/mL (≈ 258 µM)
MIC [6]: 128 µg/mL (≈ 258 µM)
MIC [7]: 32 µg/mL (≈ 64.5 µM)
MIC [8]: 64 µg/mL (≈ 129 µM)
MIC [9]: 128 µg/mL (≈ 258 µM)
MIC [10]: 128 µg/mL (≈ 258 µM)
MIC [11]: 64 µg/mL (≈ 129 µM)
